Data set [1] relates to Rattus norvegicus. Description: Ratio of drug uptake in Rattus norvegicus Wistar albino (rat) lung to muscle at 74 MBq/umol, iv measured at 30 min. The conditions noted are these: in vivo, 0.5 h.
Data set [2] deals with Large intestine. Description: Biodistribution in Rattus norvegicus Wistar albino (rat) large intestine at 74 MBq/umol, iv after 60 min. The data set is classed as ADME, organism-based. To be noted: in vivo, 1 h.
A short description of data set [3]: Biodistribution in Rattus norvegicus Wistar albino (rat) lung at 74 MBq/umol, iv administered 60 min post dose of non radiolabelled compound measured at 30 min. Format: ADME, organism-based. The conditions noted are these: read-out: Drug uptake.
The subject of data set [4] is Liver. The data set can be described thus: Biodistribution in Rattus norvegicus Wistar albino (rat) liver at 74 MBq/umol, iv measured at 60 min. The data set is classed as ADME, organism-based. To be noted: in vivo, 1 h.
Data set [5] is described as follows: Metabolic stability in Homo sapiens (human) serum at 4 hr. The data set is classed as ADME. To be noted: read-out: Stability.
A short description of data set [6]: Metabolic stability in Homo sapiens (human) serum at 24 hr. The data set is classed as ADME. The conditions noted are these: read-out: Stability.
Data set [7] relates to Liver. Description: Biodistribution in Rattus norvegicus Wistar albino (rat) liver at 74 MBq/umol, iv after 60 min. The data set is classed as ADME, organism-based. The conditions noted are these: in vivo, 1 h.
Data set [8] can be described thus: Ratio of drug uptake in Rattus norvegicus Wistar albino (rat) lung to blood at 74 MBq/umol, iv measured at 30 min. The data set is classed as ADME, organism-based.
Data set [9] can be described thus: Metabolic stability in Homo sapiens (human) serum at 2 hr. Format: ADME. To be noted: read-out: Stability.
Data set [10] has as its system Lung. The data set can be described thus: Biodistribution in Rattus norvegicus Wistar albino (rat) lung at 74 MBq/umol, iv measured at 30 min. The data set is classed as ADME, organism-based. To be noted: in vivo, 0.5 h.
Data set [11] deals with Lung. The data set can be described thus: Biodistribution in Rattus norvegicus Wistar albino (rat) lung at 74 MBq/umol, iv administered 60 min post dose of non radiolabelled compound measured at 150 min. The data set is classed as ADME, organism-based. The conditions noted are these: in vivo, 2.5 h.
The test system of data set [12] is Kidney. The data set can be described thus: Biodistribution in Rattus norvegicus Wistar albino (rat) kidney at 74 MBq/umol, iv after 60 min. The data set is classed as ADME, organism-based. To be noted: in vivo, 1 h.
The subject of data set [13] is Stomach. The data set can be described thus: Biodistribution in Rattus norvegicus Wistar albino (rat) stomach at 74 MBq/umol, iv after 60 min. Format: ADME, organism-based. To be noted: in vivo, 1 h.
Data set [14] concerns Kidney. The data set can be described thus: Biodistribution in Rattus norvegicus Wistar albino (rat) kidney at 74 MBq/umol, iv measured at 60 min. Format: ADME, organism-based. To be noted: in vivo, 1 h.
Data set [15] relates to Large intestine. Description: Biodistribution in Rattus norvegicus Wistar albino (rat) large intestine at 74 MBq/umol, iv measured at 60 min. The conditions noted are these: in vivo, 1 h. Format: ADME, organism-based.
The test system of data set [16] is Small intestine. Description: Biodistribution in Rattus norvegicus Wistar albino (rat) small intestine at 74 MBq/umol, iv measured at 60 min. The data set is classed as ADME, organism-based. The conditions noted are these: in vivo, 1 h.
Data set [17] is described as follows: Metabolic stability in Homo sapiens (human) serum at 3 hr. The data set is classed as ADME. To be noted: read-out: Stability.
Data set [18] has as its system Pancreas. The data set can be described thus: Biodistribution in Rattus norvegicus Wistar albino (rat) pancreas at 74 MBq/umol, iv measured at 30 min. Format: ADME, organism-based. The conditions noted are these: in vivo, 0.5 h.
For data set [19], the system named is Small intestine. The data set can be described thus: Biodistribution in Rattus norvegicus Wistar albino (rat) small intestine at 74 MBq/umol, iv after 60 min. Format: ADME, organism-based. The conditions noted are these: in vivo, 1 h.
Data set [20] concerns Stomach. Description: Biodistribution in Rattus norvegicus Wistar albino (rat) stomach at 74 MBq/umol, iv measured at 60 min. To be noted: in vivo, 1 h. The data set is classed as ADME, organism-based.
Data set [21] is described as follows: Biodistribution in Rattus norvegicus Wistar albino (rat) lung at 74 MBq/umol, iv administered 60 min post dose of non radiolabelled compound measured at 60 min. The data set is classed as ADME, organism-based. To be noted: read-out: Drug uptake.
Data set [22] is described as follows: Octanol-water partition coefficient of the compound. Format: physicochemical. The conditions noted are these: read-out: log KOW.

With `O=C(O[C@@H]1Cc2c(cc(O)c([131I])c2O)O[C@@H]1c1cc(O)c(O)c(O)c1)c1cc(O)c(O)c(O)c1` [[131I]-EPIGALLOCATECHIN GALLATE], in data set [1], the Ratio was 2.69. The Drug uptake entry was “Not Active” in data set [2]; 0.23 % ID/g in [4]; “Not Active” in [7]; 0.45 % ID/g in data set [10]; 0.22 % ID/g in [11]; “Not Active” in data set [12]. Further, the Drug uptake entry in data set [13] is “Not Active”; in data set [14], 0.37 % ID/g; in data set [15] it was 1.04 % ID/g; in data set [16], 0.71 % ID/g; in [18], 0.32 % ID/g; in [19], “Not Active”. Also, the Drug uptake in data set [20] came out at 2.76 % ID/g. Also, the tissue uptake at 0.5 h in data set [3] amounted to 0.25 %ID/g. For the same compound, the remaining at 4 h in [5] is 84%. Also, the remaining at 24 h in [6] is 83%. In [8], the Kp (in general, the ratio of the level in a tissue or fluid to that in plasma or blood) at 0.5 h is 0.96. For the same compound, the remaining at 2 h in data set [9] stood at 87%. Besides, the remaining at 3 h in [17] was found to be 86%. Further, in data set [21], the tissue uptake at 1 h was 0.23 %ID/g. In addition, the logP in data set [22] amounted to 1.46.
